Values quoted from earlier work, collected in US20090233947A1, “2,3-Substituted fused bicyclic pyrimidin-4(3H)-ones which modulating the function of the vanilloid -1 receptor (VR1)” (priority 2005, published 2009).

Target: VR1 (Rattus norvegicus, UniProt O35433)
Settings: Wahl et al., Mol. Pharmacol., 59:9, 2001

Sequence of VR1 (O35433 whole entry): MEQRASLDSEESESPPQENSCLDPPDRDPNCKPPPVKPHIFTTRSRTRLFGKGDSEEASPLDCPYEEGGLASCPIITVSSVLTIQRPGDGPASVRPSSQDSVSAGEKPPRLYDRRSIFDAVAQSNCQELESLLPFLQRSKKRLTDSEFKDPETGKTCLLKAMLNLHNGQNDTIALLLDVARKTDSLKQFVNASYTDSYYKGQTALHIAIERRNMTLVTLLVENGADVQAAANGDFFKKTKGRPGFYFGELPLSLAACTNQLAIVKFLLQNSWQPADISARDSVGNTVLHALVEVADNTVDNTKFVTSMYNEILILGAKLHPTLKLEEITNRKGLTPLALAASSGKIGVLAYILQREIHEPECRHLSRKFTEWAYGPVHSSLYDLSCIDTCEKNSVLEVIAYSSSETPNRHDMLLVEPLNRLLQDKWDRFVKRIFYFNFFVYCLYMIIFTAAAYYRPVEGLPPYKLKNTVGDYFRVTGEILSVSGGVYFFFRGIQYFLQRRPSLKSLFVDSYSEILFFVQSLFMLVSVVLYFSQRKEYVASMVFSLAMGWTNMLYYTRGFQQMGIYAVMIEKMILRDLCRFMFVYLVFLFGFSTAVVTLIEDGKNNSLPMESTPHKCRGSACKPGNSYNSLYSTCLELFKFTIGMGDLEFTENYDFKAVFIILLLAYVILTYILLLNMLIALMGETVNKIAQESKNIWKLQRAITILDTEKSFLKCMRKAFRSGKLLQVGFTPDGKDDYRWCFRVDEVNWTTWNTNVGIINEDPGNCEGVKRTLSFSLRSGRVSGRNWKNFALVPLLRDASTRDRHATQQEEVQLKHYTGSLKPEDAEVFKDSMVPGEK

Compound: C=C(C)[C@]12C[C@@H](C)[C@@]34O[C@](Cc5ccccc5)(O[C@@H]1[C@@H]3C=C(COC(=O)Cc1cc(I)c(O)c(OC)c1)C[C@]1(O)C(=O)C(C)=C[C@@H]41)O2 [iodo-resiniferatoxin]
- antagonist of VR1: nanomolar antagonist
